# Results from article PMC7403315, “Cyclic peptide FXII inhibitor provides safe anticoagulation in a thrombosis model and in artificial lungs” (Nature Communications, 2020).
# Several values for one entry are separate records, joined by “and”; a condition that tells them apart may be missing. Equal entries are not always repeated. Where two headings read alike, the source gives them in different places. Residues, ends and D or L forms follow the SMILES beside them.
# Target: T1, human β-FXIIa (Homo sapiens, UniProt P00748)
# T1 construct: human β-FXIIa (Molecular Innovations cat #); purchased Molecular Innovations HFXIIAB; host or cells: human blood
# T1 sequence (P00748 373-615 limits assumed, other chains not shown): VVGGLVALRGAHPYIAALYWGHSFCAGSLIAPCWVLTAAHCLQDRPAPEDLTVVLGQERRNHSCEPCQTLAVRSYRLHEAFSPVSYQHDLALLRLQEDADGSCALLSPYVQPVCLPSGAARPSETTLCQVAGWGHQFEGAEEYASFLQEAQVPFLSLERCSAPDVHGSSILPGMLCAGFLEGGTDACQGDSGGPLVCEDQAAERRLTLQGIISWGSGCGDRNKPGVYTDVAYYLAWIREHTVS
# Experiment: FXIIa protease inhibition assay with fluorogenic substrate Boc-Gln-Gly-Arg-AMC
# Type: biochemical
# Description: In order to test the inhibitory activity of peptides without prior purification, we developed the following method. […] After solid-phase peptide synthesis, cleavage, and ether precipitation, the peptides were chemically cyclized and their Ki values were determined in a FXIIa activity assay using a fluorogenic substrate.
# Protease inhibition assays
# The inhibitory activity of peptides was determined by measuring the residual protease activity with a fluorogenic substrate. The assay was performed in buffer containing 10 mM Tris-Cl, pH […]
# 1% (v/v) DMSO in a volume of 150 µl. FXIIa activity was measured with the fluorogenic substrate Boc-Gln-Gly-Arg-AMC (Bachem) at a final concentration of 50 µM. Mouse α-FXIIa (Molecular Innovations cat # MFXIIA) and human β-FXIIa (Molecular Innovations cat # HFXIIAB) were used at final concentrations of 0.4 nM. The reaction was pipetted as follows: 50 µl of bicyclic peptide in assay buffer were added to 50 µl of FXIIa in assay buffer and incubated for 10 minutes at 25°C before 50 µl of 150 µM fluorogenic substrate in assay buffer were added to measure the residual protease activity with an Infinite M200Pro fluorescence plate reader (excitation at 368 nm, emission at 467 nm; Tecan) for a period of 30 minutes with a read every minute at 25°C. The Tecan software i-control (version 1.1) was used for data analysis. Stock solutions of 1 mM bicyclic peptide were prepared by either dissolving the unpurified cyclization reaction with water or by dissolving purified and lyophilized peptide in water. The bicyclic peptides were serially diluted two-fold using assay buffer. Sigmoidal curves were fitted to the data using the following dose response equation (1), wherein x = peptide concentration, y = % protease activity, and p = Hill slope. IC50 values were derived from the fitted curve.
# The inhibition constants (Ki) were calculated according to the equation of Cheng and Prusoff, Ki = IC50/(1+([S]0/Km), wherein IC50 is the functional strength of the inhibitor, [S]0 is the total substrate concentration, and Km is the Michaelis-Menten constant. […]
# the substrate Boc-Gln-Gly-Arg-AMC. […]
# [1] = purified peptide without coumarin label, read-out: Ki human FXIIa
smiles,measurement,setting,value
CC(C)C[C@@H]1NC(=O)[C@H](CCC(N)=O)NC(=O)[C@H](CCCNC(=N)N)NC(=O)[C@@H]2CSCCC(=O)N3CN(CN(C3)C(=O)CCSC[C@H](NC(=O)[C@@H](N)CCCNC(=N)N)C(=O)N[C@@H](Cc3ccccc3)C(=O)N[C@@H](CCCNC(=N)N)C(=O)N[C@@H](CC(C)C)C(=O)N3CCC[C@H]3C(=O)N2)C(=O)CCSC[C@@H](C(=O)N[C@@H](CCCNC(=N)N)C(N)=O)NC(=O)C[C@H](CCCNC(=N)N)NC1=O [FXII700],Residual activity of human FXIIa,"inhibitor 0.0976562 nM, 97.66 pM",91.4189%
same,remaining activity at 97.66 pM,"inhibitor 0.0976562 nM, read-out: Residual activity of human FXIIa",93.2%
same,Residual activity of human FXIIa,"inhibitor 0.195312 nM, 0.000195312 µM",81.1824%
same,remaining activity at 0.000195312 µM,"inhibitor 0.195312 nM, read-out: Residual activity of human FXIIa",90.3%
same,Residual activity of human FXIIa,"inhibitor 0.390625 nM, 0.000390625 µM",72.286%
same,remaining activity at 0.000390625 µM,"inhibitor 0.390625 nM, read-out: Residual activity of human FXIIa",82.1%
same,Residual activity of human FXIIa,"inhibitor 0.78125 nM, 0.00078125 µM",58.8964%
same,remaining activity at 0.00078125 µM,"inhibitor 0.78125 nM, read-out: Residual activity of human FXIIa",69.4%
same,Residual activity of human FXIIa,"inhibitor 1.5625 nM, 0.0015625 µM",43.9302%
same,remaining activity at 0.0015625 µM,"inhibitor 1.5625 nM, read-out: Residual activity of human FXIIa",53.9%
same,Residual activity of human FXIIa,"inhibitor 3.125 nM, 0.003125 µM",29.5158% and 36.4925%
same,remaining activity at 0.003125 µM,"inhibitor 3.125 nM, read-out: Residual activity of human FXIIa",34.3%
same,Residual activity of human FXIIa,"inhibitor 6.25 nM, 0.00625 µM",18.0743% and 21.4703%
same,remaining activity at 0.00625 µM,"inhibitor 6.25 nM, read-out: Residual activity of human FXIIa",20.1%
same,Residual activity of human FXIIa,"inhibitor 12.5 nM, 0.0125 µM",10.9718% and 11.488%
same,remaining activity at 0.0125 µM,"inhibitor 12.5 nM, read-out: Residual activity of human FXIIa",10.6%
same,remaining activity at […],"inhibitor 25 nM, read-out: Residual activity of human FXIIa",4.82%
same,Residual activity of human FXIIa,"inhibitor 50 nM, 0.05 µM",4.39% and 3.29%
same,remaining activity at 0.05 µM,"inhibitor 50 nM, read-out: Residual activity of human FXIIa",2.6%
same,Residual activity of human FXIIa,"inhibitor 100 nM, 0.1 µM",1.025% and 3.134% and 1.703%
same,remaining activity at 0.2 µM,"inhibitor 200 nM, read-out: Residual activity of human FXIIa",0.731%
same,remaining activity at 0.4 µM,"inhibitor 400 nM, read-out: Residual activity of human FXIIa",0.3%
same,Ki,[1],1.5 ± 0.1 nM
"CC(C)C[C@@H]1NC(=O)[C@H](CCC(N)=O)NC(=O)[C@H](Cc2c[nH]cn2)NC(=O)[C@@H]2CSCCC(=O)N3CN(CN(C3)C(=O)CCSC[C@H](NC(=O)[C@@H](CO)NC(=O)[C@H](N)CCCNC(=N)N)C(=O)N[C@@H](Cc3ccccc3)C(=O)N[C@@H](C)C(=O)N[C@@H](CC(C)C)C(=O)N3CCC[C@H]3C(=O)N2)C(=O)CCSC[C@@H](C(N)=O)NC(=O)[C@H](CCCNC(=N)N)NC1=O [FXII901] (HELM PEPTIDE1{[dR].[dS].C.F.A.L.P.C.H.Q.L.R.C.[am]}|CHEM1{[O=C(CC[*:1])N1CN(C(=O)CC[*:2])CN(C(=O)CC[*:3])C1]}$PEPTIDE1,CHEM1,3:R3-1:R1|PEPTIDE1,CHEM1,8:R3-1:R2|PEPTIDE1,CHEM1,13:R3-1:R3$$$V2.0)",Ki,"negative control peptide, read-out: Ki FXIIa",39000 ± 14000 nM
CC(C)C[C@@H]1NC(=O)[C@H](CCC(N)=O)NC(=O)[C@H](CCCNC(=N)N)NC(=O)[C@@H]2CSCCC(=O)N3CN(CN(C3)C(=O)CCSC[C@H](NC(=O)[C@@H](N)CCCNC(=N)N)C(=O)N[C@@H](Cc3ccc(F)cc3)C(=O)N[C@@H](CCCNC(=N)N)C(=O)N[C@@H](CC(C)C)C(=O)N3CCC[C@H]3C(=O)N2)C(=O)CCSC[C@@H](C(=O)N[C@@H](CCCNC(=N)N)C(N)=O)NC(=O)[C@H](CCCNC(=N)N)NC1=O [FXII800],Residual activity of human FXIIa,"inhibitor 0.12207 nM, 0.00012207 µM",86.6295% and 91.1755%
same,remaining activity at 0.00012207 µM,"inhibitor 0.12207 nM, read-out: Residual activity of human FXIIa",94.2%
same,Residual activity of human FXIIa,"inhibitor 0.244141 nM, 0.000244141 µM",82.4999% and 82.653%
same,remaining activity at 0.000244141 µM,"inhibitor 0.244141 nM, read-out: Residual activity of human FXIIa",87%
same,Residual activity of human FXIIa,"inhibitor 0.488281 nM, 0.000488281 µM",69.0437% and 70.79%
same,remaining activity at 0.000488281 µM,"inhibitor 0.488281 nM, read-out: Residual activity of human FXIIa",70.3%
same,Residual activity of human FXIIa,"inhibitor 1.95312 nM, 0.00195312 µM",33.1082% and 35.3323%
same,remaining activity at 0.00195312 µM,"inhibitor 1.95312 nM, read-out: Residual activity of human FXIIa",31.8%
same,Residual activity of human FXIIa,"inhibitor 3.90625 nM, 0.00390625 µM",19.4631% and 21.6747%
same,remaining activity at 0.00390625 µM,"inhibitor 3.90625 nM, read-out: Residual activity of human FXIIa",16.9%
same,Residual activity of human FXIIa,"inhibitor 7.8125 nM, 0.0078125 µM",10.6116% and 10.9279%
same,remaining activity at 0.0078125 µM,"inhibitor 7.8125 nM, read-out: Residual activity of human FXIIa",9.32%
same,Residual activity of human FXIIa,"inhibitor 15.625 nM, 0.015625 µM",6.273% and 6.117%
same,remaining activity at 0.015625 µM,"inhibitor 15.625 nM, read-out: Residual activity of human FXIIa",6.19%
same,Residual activity of human FXIIa,"inhibitor 31.25 nM, 0.03125 µM",3.754% and 3.106%
same,remaining activity at 0.03125 µM,"inhibitor 31.25 nM, read-out: Residual activity of human FXIIa",2.96%
same,Residual activity of human FXIIa,"inhibitor 62.5 nM, 0.0625 µM",2.455% and 1.836%
same,remaining activity at 0.0625 µM,"inhibitor 62.5 nM, read-out: Residual activity of human FXIIa",1.51%
same,Residual activity of human FXIIa,"inhibitor 125 nM, 0.125 µM",1.461% and 1.1009%
same,remaining activity at 0.125 µM,"inhibitor 125 nM, read-out: Residual activity of human FXIIa",1.19%
same,Residual activity of human FXIIa,"inhibitor 0.976562 / 0.976563 nM, 0.000976563 µM",50.5477% and 54.5303%
same,remaining activity at 0.000976563 µM,"inhibitor 0.976562 / 0.976563 nM, read-out: Residual activity of human FXIIa",50.5%
same,Ki,[1],0.84 ± 0.03 nM
